Reference: US20100093653A1, “Use of 1,6-Bis [3-(3-carboxymethylphenyl)-4-(2-alpha-D-mannopyranosyl-oxy)-phenyl] hexane for the preparation of cosmetic compositions” (Revotar Biopharmaceuticals AG, priority 2006, published 2010)

Assays:
wrinkles of crow's feet = test: Anti-wrinkle efficacy, crow's feet skin replicas with image analysis; format: in vivo, healthy subjects; conditions: microemulsion of example 6, twice a day for 28 days; treated vs untreated crow's feet; all subjects
Description: By using the microemulsion as described in example 6, the anti-wrinkle effect of FORM 1 of 1,6-Bis [3-(3-carboxymethylphenyl)-4-(2-α-D-mannopyranosyloxy)-phenyl]hexane (compound of formula (I)) is investigated according to methods known to the skilled person. 40 healthy subjects aged between 34 and 59 years, comprising 35 women and 5 men are selected. The formulation containing FORM 1 of the compound of formula (I), is applied twice a day, in the morning and in the evening, to one temporal zone of the face (crow's feet) for 28 days. The other zone remains untreated and serves as a control. An impression (skin replicas) is made from the control and treated zone at time 0 and after 28 days of treatment using SILFO impression material (Flexico, England).

porcine skin = test: Franz diffusion cell penetration assay using porcine skin; format: in vitro ADME; conditions: microemulsion of example 6; 10.4 μl on 1000 μm porcine skin; 8 h; 37° C.; LC/MS
Protocol: By using the microemulsion as described in example 6, skin penetration studies of FORM 1 of 1,6-Bis [3-(3-carboxymethylphenyl)-4-(2-α-D-mannopyranosyloxy)-phenyl]hexane in employing a Franz diffusion cell penetration assay using porcine skin is performed according to the methods known to the skilled person. Porcine skin samples (6 in total, 2 from each animal, 3 female animals in total), 1000 μm thick, with the stratum corneum facing up are placed onto the lower part of a Franz diffusion cell. The cell is rinsed with medium tempered to 37° C. to prevent the skin from drying out and the system is equilibrated for 30 minutes. 10.4 μl of microemulsion as described in example 6 is applied to the dry upper side of the epidermis using a pipette and the microemulsion is distributed with an inoculation loop. Medium is collected every hour.
After 8 h the experiment is finished. The skin is punched out and the surface of the skin is swabed to removed excess microemulsion. The dry surface is stripped 20 times using Tesafilm. Swabs, strips, medium and skin samples are analysed for content of FORM 1 of 1,6-Bis [3-(3-carboxymethylphenyl)-4-(2-α-D-mannopyranosyloxy)-phenyl]hexane by LC/MS. On average 4% of the applied amount of FORM 1 of 1,6-Bis [3-(3-carboxymethylphenyl)-4-(2-α-D-mannopyranosyloxy)-phenyl]hexane in the microemulsion as described in example 6 penetrates into skin.

photoageing = test: Protective effect against photoageing, chronic solar-simulated UV radiation; format: in vivo, hairless mice; conditions: microemulsion of example 6, topical twice daily during 30 weeks UV-exposure; histology
Description: By using the microemulsion as described in example 6, the protective effect of FORM 1 of 1,6-Bis [3-(3-carboxymethylphenyl)-4-(2-α-D-mannopyranosyloxy)-phenyl]hexane (compound of formula (I)) against photoageing (hairless mice) is investigated according to methods known to the skilled person. Hairless mice are exposed to chronic solar-simulated UV radiation for 30 weeks.

[1] = tested on: photoageing of human skin; test: Protective effect against photoaging of human skin, solar simulated UV radiation, immunohistology of biopsies; format: in vivo; conditions: microemulsion of example 6, topical before 2 MED UV; buttock skin biopsies 24 hours after exposition; vehicle control skin showed it
Description: By using the microemulsion as described in example 6, the protective effect of FORM 1 of 1,6-Bis [3-(3-carboxymethylphenyl)-4-(2-α-D-mannopyranosyloxy)-phenyl]hexane (compound of formula (I)) against photoageing of human skin is investigated according to methods known to the skilled person. Two areas of buttock skin (each approximately 2×2 cm) of 10 healthy male white volunteers are exposed to erythematogenic doses (2 MED) of solar simulated UV radiation. Before radiation one area is topically treated with the formulation containing FORM 1 of compound of formula (I), the other with the formulation without FORM 1 of compound of formula (I) (vehicle control). 24 hours after exposition, biopsies are taken from both areas and as control from an area that is not exposed to radiation.

[2] = tested on: isolated perfused porcine fore limb; test: isolated perfused porcine fore limb transdermal penetration assay; format: in vitro ADME; conditions: microemulsion of example 6; 5 h application time; LC/MS
Protocol: By using the microemulsion as described in example 6 skin penetration studies of FORM 1 of 1,6-Bis [3-(3-carboxymethylphenyl)-4-(2-α-D-mannopyranosyloxy)-phenyl]hexane employing an isolated perfused porcine fore limb transdermal penetration assay using pig porcine is performed according to the methods known to the skilled person. The isolated perfused porcine fore limb is an assay system, which retains intact anatomy and skin, muscle, blood vessel and bone morphology. The organ is kept vitalized by perfusion with a blood-based perfusion medium for up to 6 h. This system allows monitoring of transdermal, resorption, penetration or permeation of pharmaceuticals and cosmetics. 3 application sites are choosen and surrounded by Leukosilk. On each of these areas 10 μl of microemulsion are applied with a pipette and distributed with the pipette tip.
For three additional application sites, the cotton pads of three Hill Top chambers in total, are soaked and saturated with microemulsion and applied to skin. After 5 h application time Hill Top chambers are removed and the unabsorbed microemulsion from the free sites is removed with a dry swab each. 20 Tesa strips are collected from each of the six applications sites. […] Swabs, strips, skin biopsys are analysed for content of FORM 1 of 1,6-Bis [3-(3-carboxymethylphenyl)-4-(2-α-D-mannopyranosyloxy)-phenyl]hexane with LC/MS. […]

[3] = tested on: skin elasticity of the back; test: Model of hormone induced skin ageing (menopause model, bilateral ovarectomy); format: in vivo, female hairless mice; conditions: microemulsion of example 6 onto the back twice daily for two months after ovary removal; vehicle control animals showed the reduction
Description: By using the microemulsion as described in example 6, the effect of FORM 1 of 1,6-Bis [3-(3-carboxymethylphenyl)-4-(2-α-D-mannopyranosyloxy)-phenyl]hexane (compound of formula (I)) on hormone induced skin ageing is investigated employing a menopause model according to methods known to the skilled person. Five-week old female hairless mice are subjected to bilateral ovarectomy, and used as an animal model of menopause. For two months from immediately after ovary extraction, the formulation containing FORM 1 of compound of formula (I) is applied onto the back twice daily. As a control, the formulation without FORM 1 of compound of formula (I) is applied in a similar protocol (vehicle control). […] Two months after ovary removal, skin elasticity of the back is measured using a Cutometer (COURAGE KHAZAKSA).

Q: What does the source list for `O=C(O)Cc1cccc(-c2cc(CCCCCCc3ccc(O[C@H]4O[C@H](CO)[C@@H](O)[C@H](O)[C@@H]4O)c(-c4cccc(CC(=O)O)c4)c3)ccc2O[C@H]2O[C@H](CO)[C@@H](O)[C@H](O)[C@@H]2O)c1` [FORM 1 of compound of formula (I), 1,6-Bis [3-(3-carboxymethylphenyl)-4-(2-α-D-mannopyranosyloxy)-phenyl]hexane]?
A: depth of wrinkles (wrinkles of crow's feet): significantly reduces; length of wrinkles (wrinkles of crow's feet): significantly reduces; number of wrinkles (wrinkles of crow's feet): significantly reduces; applied amount that penetrates into skin (on average) (porcine skin): 4%; degraded dermal collagen (photoageing): protected significantly; deposition of glycosamisnoglycans in the lower dermis (photoageing): protected significantly; dermal mast cell number (photoageing): protected significantly; epidermal hyperplasia (photoageing): protected significantly; focal elastotic deposits (photoageing): protected significantly; matrix-metallo-proteinase-1 (MMP-1) [1]: This is not the case; matrix-metallo-proteinase-9 (MMP-9) [1]: This is not the case; strong infiltration of neutrophils [1]: This is not the case; applied amount that penetrates into skin (on average) [2]: 5%; significantly reduced skin elasticity (Cutometer) as compared to normal animals [3]: This was not the case
